Test results reported in US8470787B2, “Hydrates of erythromycin salts, preparation and use thereof” (priority 2008, dated 2013).

How the values were obtained:
[1] = system: Escherichia coli; assay: antibacterial activity, tube double dilution method, clinically obtained bacteria; assay type: cell-based; settings: 21 strains
[2] = system: Staphylococcus epidermidis; assay: as above; assay type: cell-based; settings: 21 strains
[3] = system: Staphylococcus aureus; assay: as above; assay type: cell-based; settings: 26 strains
[4] = spray-dried product
[5] = system: Streptococcus viridan; assay: antibacterial activity, tube double dilution method, clinically obtained bacteria; assay type: cell-based; settings: 23 strains
[6] = accelerated stability test (sealed vial, 30° C., HPLC content and related substances); assay type: physicochemical
Experimental: The hydrates of erythromycin salts according to the present invention can be stably stored. A sample of the above hydrates was sealed in a vial, and an accelerated stability test was conducted at 30° C. and changes of the content and related substances were measured by a HPLC method (C18 reverse phase column, 0.01M KH2PO4-acetonitrile (60:40) as the mobile phase, detective wavelength: 215 nm, column temperature: 35° C., flow rate: 1.0 ml/min) (upon different hydrates of erythromycin salts, such as crystalline hydrates of erythromycin thiocyanate, the pH of the mobile phase can be adjusted and KH2PO4 can be changed into NaH2PO4, the detective wavelength can be changed into 210 nm, and the column temperature can be set at 35-55° C., such as 50° C. for analysis and measurement). […] As compared to the anhydrous of erythromycin salt, the hydrates of erythromycin salts according to the present invention have a lower hygroscopicity, i.e., has a better stability of hygroscopicity, which facilitates the package and storage thereof, or is a more advantageously stable form for storage relative to the anhydrous.

[7] = system: Neisseria gonorrhoeae; assay: antibacterial activity, tube double dilution method, clinically obtained bacteria; assay type: cell-based
Experimental: (§1) The antibacterial activities of the hydrates of erythromycin salts are determined by culturing clinically obtained bacteria and measuring in accordance with pharmacological test methods (the tube double dilution method), and the results are shown in the following tables 9, 10, 11 and 12.

[8] = system: Bacillus fragilis; assay: as above; assay type: cell-based
Experimental: as §1

[9] = system: Pneumococcus; assay: as above; assay type: cell-based
Experimental: as §1

[10] = system: Propionibacterium; assay: as above; assay type: cell-based
Experimental: as §1

[11] = system: Bacillus influenzae; assay: as above; assay type: cell-based
Experimental: as §1

[12] = system: Streptococcus hemolyticus; assay: as above; assay type: cell-based
Experimental: as §1

CC[C@H]1OC(=O)[C@H](C)[C@@H](O[C@H]2C[C@@](C)(OC)[C@@H](O)[C@H](C)O2)[C@H](C)[C@@H](O[C@@H]2O[C@H](C)C[C@H](N(C)C)[C@H]2O)[C@](C)(O)C[C@@H](C)C(=O)[C@H](C)[C@@H](O)[C@]1(C)O.O.O.O.O.O.O=C(O)[C@H](O)[C@@H](O)[C@H](O[C@@H]1O[C@H](CO)[C@H](O)[C@H](O)[C@H]1O)[C@H](O)CO [erythromycin lactobionate pentahydrate]
MIC50 [1]: 4 µg/mL | MIC50 [2]: 16 µg/mL | MIC50 [3]: 0.12 µg/mL | potency [4]: 626 u/mg | MIC50 [5]: 0.06 µg/mL | MIC90 [5]: 0.5 µg/mL | Assay (%) ([6]; month 0): 99.9% | Form ([6]; month 0): off-white powder | Assay (%) ([6]; month 1): 100.2% | Form ([6]; month 1): off-white powder | Assay (%) ([6]; month 2): 99.8% | Form ([6]; month 2): off-white powder | Assay (%) ([6]; month 3): 100.1% | Form ([6]; month 3): off-white powder | Assay (%) ([6]; month 6): 99.9% | Form ([6]; month 6): off-white powder | MIC50 ([7]; 16 strains): 0.25 µg/mL | MIC90 ([7]; 16 strains): 1 µg/mL | MIC ([7]; range over 16 strains): 0.06 to 2 µg/mL | MIC50 ([8]; 15 strains): 4 µg/mL | MIC90 ([8]; 15 strains): 16 µg/mL | MIC ([8]; range over 15 strains): 0.5 to 64 µg/mL | MIC50 ([9]; 18 strains): 0.06 µg/mL | MIC90 ([9]; 18 strains): 1 µg/mL | MIC ([9]; range over 18 strains): 0.03 to 0.5 µg/mL | MIC50 ([10]; 18 strains): 0.06 µg/mL | MIC90 ([10]; 18 strains): 0.12 µg/mL | MIC ([10]; range over 18 strains): 0.03 to 16 µg/mL | MIC50 ([11]; 17 strains): 4 µg/mL | MIC90 ([11]; 17 strains): 8 µg/mL | MIC ([11]; range over 17 strains): 0.12 to 8 µg/mL | MIC50 ([12]; 16 strains): 0.06 µg/mL | MIC90 ([12]; 16 strains): 32 µg/mL | MIC ([12]; range over 16 strains): 0.03 to 32 µg/mL
